Experimental data published in patent US12391679B2, “Benzamide-substituted bicyclic imidazo- and pyrazolo-fused -pyridine, -pyrimide, and -pyridazine compounds for treatment of inflammatory diseases” (ONCO3R Therapeutics BV, priority 2019, dated 2025).

Assays:
Assay type in all cases: biochemical
SIK1 = target: T1, SIK1 (Homo sapiens, UniProt P57059); experiment: ADP-Glo kinase assay, SIK1
T1 construct: purchased Carna Biosciences 02-131
Description: (§1) The ADP-Glo™ kinase assay is a luminescent technology assay which measures the ADP formed from a kinase reaction. […] In a second step the kinase reactions are terminated and all the remaining ATP is depleted. In a final step the ADP is converted into ATP and this newly synthesized ATP is measured by using a luciferase/luciferin reaction. The generated light is measured using an Envision plate reader, wherein the luminescent signal obtained positively correlates with the kinase activity.
(§2) 1% DMSO and 10 μM staurosporine final concentrations are used as negative and positive controls.
(§3) 2 μL enzyme-substrate mixture is added to the assay plates.
(§4) The reaction is started by adding 2 μL diluted ATP on the assay plates. Plates are centrifuged for a few seconds at 1000 rpm and gently shaken for […] followed by an incubation at RT for 120 min.
(§5) The reactions are stopped and the unconsumed ATP is depleted by adding 5 μL ADP-Glo Reagent (Promega, Cat #V9120) to the reaction. The plates are centrifuged for a few seconds at 1000 rpm and incubated at RT for 40 min (ATP depletion).
(§6) The ADP is converted to ATP and luciferase and luciferin is introduced to detect ATP by adding 10 μL Kinase Detection Reagent (Promega, Cat #V913B+V914r) to the reaction. The plates are centrifuged for a few seconds at 1000 rpm and incubated at RT for 30 min (ADP detection).
(§7) Luminescence is measured on an Envision plate reader (PerkinElmer Inc.).

SIK2 = target: T2, SIK2 (Homo sapiens, UniProt Q9H0K1); experiment: ADP-Glo kinase assay, SIK2
T2 construct: purchased ThermoFisher Scientific PV4792
T2 sequence (Q9H0K1 whole entry): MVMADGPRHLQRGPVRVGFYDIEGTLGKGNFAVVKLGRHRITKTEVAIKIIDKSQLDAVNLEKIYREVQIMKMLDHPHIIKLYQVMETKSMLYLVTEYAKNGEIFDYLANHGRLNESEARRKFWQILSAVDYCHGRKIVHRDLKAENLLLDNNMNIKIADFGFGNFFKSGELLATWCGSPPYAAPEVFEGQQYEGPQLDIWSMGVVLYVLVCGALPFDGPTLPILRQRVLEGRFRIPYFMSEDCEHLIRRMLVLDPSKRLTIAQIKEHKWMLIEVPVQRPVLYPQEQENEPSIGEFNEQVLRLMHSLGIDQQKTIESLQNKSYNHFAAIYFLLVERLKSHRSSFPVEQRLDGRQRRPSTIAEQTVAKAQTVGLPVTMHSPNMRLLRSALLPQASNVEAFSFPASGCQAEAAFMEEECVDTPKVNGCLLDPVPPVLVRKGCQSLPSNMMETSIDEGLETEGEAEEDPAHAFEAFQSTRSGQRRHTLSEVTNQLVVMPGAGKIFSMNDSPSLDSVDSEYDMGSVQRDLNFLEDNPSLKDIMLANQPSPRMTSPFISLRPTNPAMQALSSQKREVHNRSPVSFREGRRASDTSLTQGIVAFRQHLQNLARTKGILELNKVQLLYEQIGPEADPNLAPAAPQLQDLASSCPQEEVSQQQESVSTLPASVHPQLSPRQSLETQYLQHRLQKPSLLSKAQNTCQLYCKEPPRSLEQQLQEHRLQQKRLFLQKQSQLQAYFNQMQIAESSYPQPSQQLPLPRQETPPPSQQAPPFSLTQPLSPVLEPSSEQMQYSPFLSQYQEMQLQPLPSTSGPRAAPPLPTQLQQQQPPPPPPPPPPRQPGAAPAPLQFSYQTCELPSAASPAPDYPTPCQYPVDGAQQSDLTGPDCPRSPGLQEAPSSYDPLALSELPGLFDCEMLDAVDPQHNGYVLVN
Description: as §1, §2, §3, §4, §5, §6, §7

SIK3 = target: T3, SIK3 (Homo sapiens, UniProt Q9Y2K2); experiment: ADP-Glo kinase assay, SIK3
T3 construct: purchased SignalChem S12-11G-100
T3 sequence (Q9Y2K2 59-365 limits assumed): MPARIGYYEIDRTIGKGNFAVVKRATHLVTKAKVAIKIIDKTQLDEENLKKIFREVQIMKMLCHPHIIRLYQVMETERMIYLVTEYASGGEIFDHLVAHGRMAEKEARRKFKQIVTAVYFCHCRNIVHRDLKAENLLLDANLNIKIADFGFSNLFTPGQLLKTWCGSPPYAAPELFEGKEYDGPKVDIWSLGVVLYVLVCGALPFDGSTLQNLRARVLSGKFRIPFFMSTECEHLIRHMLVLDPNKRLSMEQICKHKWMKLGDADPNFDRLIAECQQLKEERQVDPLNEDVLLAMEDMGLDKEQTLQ
Description: as §1, §2, §3, §4, §5, §6, §7

T1 sequence (P57059 whole entry): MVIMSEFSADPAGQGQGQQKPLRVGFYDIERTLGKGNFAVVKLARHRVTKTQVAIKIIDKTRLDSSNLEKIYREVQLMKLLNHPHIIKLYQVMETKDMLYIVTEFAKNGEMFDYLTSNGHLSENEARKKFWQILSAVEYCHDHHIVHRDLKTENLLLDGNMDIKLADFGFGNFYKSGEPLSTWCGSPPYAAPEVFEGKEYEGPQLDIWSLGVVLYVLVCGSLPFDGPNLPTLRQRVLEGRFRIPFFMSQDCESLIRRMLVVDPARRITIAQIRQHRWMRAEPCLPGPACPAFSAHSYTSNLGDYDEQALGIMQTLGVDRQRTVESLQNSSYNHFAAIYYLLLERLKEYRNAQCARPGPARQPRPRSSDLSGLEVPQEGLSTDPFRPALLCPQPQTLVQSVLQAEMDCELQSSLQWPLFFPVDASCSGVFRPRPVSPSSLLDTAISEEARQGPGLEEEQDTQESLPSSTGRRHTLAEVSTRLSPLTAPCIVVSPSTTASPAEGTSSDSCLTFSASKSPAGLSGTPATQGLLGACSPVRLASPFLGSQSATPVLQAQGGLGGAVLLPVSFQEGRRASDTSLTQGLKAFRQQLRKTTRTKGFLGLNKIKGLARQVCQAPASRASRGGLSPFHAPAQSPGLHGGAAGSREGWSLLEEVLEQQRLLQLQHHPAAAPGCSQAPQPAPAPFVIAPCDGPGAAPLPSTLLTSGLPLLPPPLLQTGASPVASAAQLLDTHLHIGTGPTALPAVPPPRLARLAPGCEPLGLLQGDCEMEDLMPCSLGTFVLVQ

Row | SMILES | IC50 (SIK1) | IC50 (SIK2) | IC50 (SIK3)
1 | C=CCC(C#N)(CC=C)c1ccn2c(-c3cc(OC)c(C(=O)NC4CC4)c(OC(F)F)c3)cnc2c1 [Cpd 36, 4-[7-(1-allyl-1-cyano-but-3-enyl)imidazo[1,2-a]pyridin-3-yl]-N-cyclopropyl-2-(difluoromethoxy)-6-methoxy-benzamide] | > 500 nM | > 500 nM | 10 to 100 nM
2 | COc1cc(-c2cnc3cc(C4CCOCC4)ccn23)cc(OC)c1C(=O)NCC(F)(F)F [Cpd 37, 2,6-dimethoxy-4-(7-tetrahydropyran-4-ylimidazo[1,2-a]pyridin-3-yl)-N-(2,2,2-trifluoroethyl)benzamide] | > 500 nM | 100 to 500 nM | 10 to 100 nM
3 | COc1cc(-c2cnc3cc(C(C)(C)C#N)ccn23)cc(OC(F)F)c1C(=O)N1CCS(=O)(=O)CC1 [Cpd 38, 2-[3-[3-(difluoromethoxy)-4-(1,1-dioxo-1,4-thiazinane-4-carbonyl)-5-methoxy-phenyl]imidazo[1,2-a]pyridin-7-yl]-2-methyl-propanenitrile] | > 500 nM | > 500 nM | > 500 nM
4 | CCN(C)C(=O)c1c(OC)cc(-c2cnc3cc(C(C)(C)C#N)ccn23)cc1OC(F)F [Cpd 40, 4-[7-(1-cyano-1-methyl-ethyl)imidazo[1,2-a]pyridin-3-yl]-2-(difluoromethoxy)-N-ethyl-6-methoxy-N-methyl-benzamide] | > 500 nM | > 500 nM | > 500 nM
5 | COc1cc(-c2cnc3cc(C(C)(C)C#N)ccn23)cc(OC(F)F)c1C(=O)N1CCC(O)CC1 [Cpd 41, 2-[3-[3-(difluoromethoxy)-4-(4-hydroxypiperidine-1-carbonyl)-5-methoxy-phenyl]imidazo[1,2-a]pyridin-7-yl]-2-methyl-propanenitrile] | > 500 nM | > 500 nM | > 500 nM
6 | COc1cc(-c2cnc3cc(C(C)(C)C#N)ccn23)cc(OC(F)F)c1C(=O)NCCN1CCOCC1 [Cpd 42, 4-[7-(1-cyano-1-methyl-ethyl)imidazo[1,2-a]pyridin-3-yl]-2-(difluoromethoxy)-6-methoxy-N-(2-morpholinoethyl)benzamide] | > 500 nM | > 500 nM | 100 to 500 nM
7 | COc1cc(-c2cnc3cc(C(C)(C)C#N)ccn23)cc(OC(F)F)c1C(=O)NC1COC1 [Cpd 43, 4-[7-(1-cyano-1-methyl-ethyl)imidazo[1,2-a]pyridin-3-yl]-2-(difluoromethoxy)-6-methoxy-N-(oxetan-3-yl)benzamide] | > 500 nM | > 500 nM | 10 to 100 nM
8 | COc1cc(-c2cnc3cc(C(C)(C)C#N)ccn23)cc(OC(F)F)c1C(=O)NCCCO [Cpd 44, 4-[7-(1-cyano-1-methyl-ethyl)imidazo[1,2-a]pyridin-3-yl]-2-(difluoromethoxy)-N-(3-hydroxypropyl)-6-methoxy-benzamide] | > 500 nM | > 500 nM | 10 to 100 nM
9 | COCCCNC(=O)c1c(OC)cc(-c2cnc3cc(C(C)(C)C#N)ccn23)cc1OC(F)F [Cpd 45, 4-[7-(1-cyano-1-methyl-ethyl)imidazo[1,2-a]pyridin-3-yl]-2-(difluoromethoxy)-6-methoxy-N-(3-methoxypropyl)benzamide] | > 500 nM | > 500 nM | 100 to 500 nM
10 | COc1cc(-c2cnc3cc(C(C)(C)C#N)ccn23)cc(OC(F)F)c1C(=O)N1CCC(OC)CC1 [Cpd 46, 2-[3-[3-(difluoromethoxy)-5-methoxy-4-(4-methoxypiperidine-1-carbonyl)phenyl]imidazo[1,2-a]pyridin-7-yl]-2-methyl-propanenitrile] | > 500 nM | > 500 nM | > 500 nM
11 | COc1cc(-c2cnc3cc(C(C)(C)C#N)ccn23)cc(OC(F)F)c1C(=O)N1CCC(F)(F)C1 [Cpd 47, 2-[3-[3-(difluoromethoxy)-4-(3,3-difluoropyrrolidine-1-carbonyl)-5-methoxy-phenyl]imidazo[1,2-a]pyridin-7-yl]-2-methyl-propanenitrile] | > 500 nM | > 500 nM | 10 to 100 nM
12 | COc1cc(-c2cnc3cc(C(C)(C)C#N)ccn23)cc(OC(F)F)c1C(=O)N1CCOCC1 [Cpd 48, 2-[3-[3-(difluoromethoxy)-5-methoxy-4-(morpholine-4-carbonyl)phenyl]imidazo[1,2-a]pyridin-7-yl]-2-methyl-propanenitrile] | > 500 nM | > 500 nM | > 500 nM
13 | COc1cc(-c2cnc3cc(C(C)(C)C#N)ccn23)cc(OC(F)F)c1C(=O)N1CCN(C)CC1 [Cpd 49, 2-[3-[3-(difluoromethoxy)-5-methoxy-4-(4-methylpiperazine-1-carbonyl)phenyl]imidazo[1,2-a]pyridin-7-yl]-2-methyl-propanenitrile] | > 500 nM | > 500 nM | > 500 nM
14 | COc1cc(-c2cnc3cc(C(C)(C)C#N)ccn23)cc(OC(F)F)c1C(=O)N1CC(O)C1 [Cpd 50, 2-[3-[3-(difluoromethoxy)-4-(3-hydroxyazetidine-1-carbonyl)-5-methoxy-phenyl]imidazo[1,2-a]pyridin-7-yl]-2-methyl-propanenitrile] | > 500 nM | > 500 nM | 100 to 500 nM
15 | COc1cc(-c2cnc3cc(C(C)(C)C#N)ccn23)cc(OC(F)F)c1C(=O)N1CC2(COC2)C1 [Cpd 51, 2-[3-[3-(difluoromethoxy)-5-methoxy-4-(2-oxa-6-azaspiro[3.3]heptane-6-carbonyl)phenyl]imidazo[1,2-a]pyridin-7-yl]-2-methyl-propanenitrile] | > 500 nM | > 500 nM | 10 to 100 nM
16 | COc1cc(-c2cnc3cc(C(C)(C)C#N)ccn23)cc(OC(F)F)c1C(=O)NCc1ccn(C)n1 [Cpd 52, 4-[7-(1-cyano-1-methyl-ethyl)imidazo[1,2-a]pyridin-3-yl]-2-(difluoromethoxy)-6-methoxy-N-[(1-methylpyrazol-3-yl)methyl]benzamide] | > 500 nM | > 500 nM | > 500 nM
17 | COc1cc(-c2cnc3cc(C(C)O)ccn23)cc(OC)c1C(=O)NCC(F)(F)F (stereo not drawn) [Cpd 54, 4-[7-(1-hydroxyethyl)imidazo[1,2-a]pyridin-3-yl]-2,6-dimethoxy-N-(2,2,2-trifluoroethyl)benzamide] | > 500 nM | > 500 nM | 10 to 100 nM
18 | COc1cc(-c2cnc3cc(C(C)(C)N)ccn23)cc(OC)c1C(=O)NCC(F)(F)F [Cpd 55, 4-[7-(1-amino-1-methyl-ethyl)imidazo[1,2-a]pyridin-3-yl]-2,6-dimethoxy-N-(2,2,2-trifluoroethyl)benzamide] | > 500 nM | > 500 nM | 10 to 100 nM
19 | COc1cc(-c2cnc3cc(C(C)(C)C(C)=O)ccn23)cc(OC)c1C(=O)NCC(F)(F)F [Cpd 56, 4-[7-(1,1-dimethyl-2-oxo-propyl)imidazo[1,2-a]pyridin-3-yl]-2,6-dimethoxy-N-(2,2,2-trifluoroethyl)benzamide] | > 500 nM | > 500 nM | 10 to 100 nM
20 | COc1cc(-c2cnc3cc(C(C)(C)O)ccn23)cc(OC)c1C(=O)NCC(F)(F)F [Cpd 57, 4-[7-(1-hydroxy-1-methyl-ethyl)imidazo[1,2-a]pyridin-3-yl]-2,6-dimethoxy-N-(2,2,2-trifluoroethyl)benzamide] | > 500 nM | > 500 nM | 10 to 100 nM
21 | COc1cc(-c2cnc3cc(C4CN(C(=O)OC(C)(C)C)C4)ccn23)cc(OC)c1C(=O)NCC(F)(F)F [Cpd 58, tert-butyl 3-[3-[3,5-dimethoxy-4-(2,2,2-trifluoroethylcarbamoyl)phenyl]imidazo[1,2-a]pyridin-7-yl]azetidine-1-carboxylate] | 100 to 500 nM | 100 to 500 nM | 10 to 100 nM
22 | COc1cc(-c2cnc3cc(C4CN(C(=O)OC(C)(C)C)C4)ccn23)cc(OC(F)F)c1C(=O)NC1CC1 [Cpd 59, tert-butyl 3-[3-[4-(cyclopropylcarbamoyl)-3-(difluoromethoxy)-5-methoxy-phenyl]imidazo[1,2-a]pyridin-7-yl]azetidine-1-carboxylate] | 10 to 100 nM | 10 to 100 nM | 0.01 to 10 nM
23 | COc1cc(-c2cnc3cc(C4CCN(C(=O)OC(C)(C)C)CC4)ccn23)cc(OC(F)F)c1C(=O)NC1CC1 [Cpd 60, tert-butyl 4-[3-[4-(cyclopropylcarbamoyl)-3-(difluoromethoxy)-5-methoxy-phenyl]imidazo[1,2-a]pyridin-7-yl]piperidine-1-carboxylate] | 100 to 500 nM | 10 to 100 nM | 0.01 to 10 nM
24 | COc1cc(-c2cnc3cc(C(C)(C)c4noc(C)n4)ccn23)cc(OC(F)F)c1C(=O)NC1CC1 [Cpd 61, N-cyclopropyl-2-(difluoromethoxy)-6-methoxy-4-[7-[1-methyl-1-(5-methyl-1,2,4-oxadiazol-3-yl)ethyl]imidazo[1,2-a]pyridin-3-yl]benzamide] | > 500 nM | > 500 nM | 10 to 100 nM
25 | COc1cc(-c2cnc3cc(C4CCCNC4)ccn23)cc(OC(F)F)c1C(=O)NC1CC1 (stereo not drawn) [Cpd 65, N-cyclopropyl-2-(difluoromethoxy)-6-methoxy-4-[7-(3-piperidyl)imidazo[1,2-a]pyridin-3-yl]benzamide] | > 500 nM | 10 to 100 nM | 0.01 to 10 nM
